In US20230348506A1, “MACROCYCLIC PANTETHEINE DERIVATIVES AND USES THEREOF” (VectivBio Comet AG, priority 2019, published 2023):

Tests used:
Type in all cases: cell-based, human
[1] = test system: primary adherent fibroblast cell line derived from an Methylmalonic Acidemia (MMA) patient (GM01673, Coriell Institute for Medical Research); test: Mitochondrial respiration (Seahorse XFe96, OCR), Spare Capacity AUC; details: 10 μM compound; medium with 10 mM glucose, 2 mM glutamine, 1 mM pyruvate; 1 μM FCCP for 20 cycles; relative to vehicle
Experimental: The effect of the compounds of the present disclosure on mitochondrial respiration was measured with a XFe96 Extracellular Flux Analyzer (Seahorse Bioscience, Agilent Technologies) and Oxygen consumption Rate (OCR) and Extracellular acidification rate (ECAR) determined.
Cell culture and treatments. Primary adherent fibroblasts were cultured in minimum essential medium (MEM) (Gibco, 25030081) supplemented with 2 mM L-Glutamine (Gibco, 25030081), 15% fetal bovine serum (FBS) (Gibco, 26400044) and 1% penicillin/streptomycin (Gibco, 5140122) at 37° C. and 5% CO2. Cells were collected for either passaging or experiment at ˜70-80% confluence. Cells were obtained by trypsinization and seeded at 10,000 cells/well in cell culture microplates (Seahorse Bioscience, 101085-004) and allowed to adhere for 48 hours in culture media. […]
Determining the optimized cell density and concentrations for stress test, such as FCCP, were achieved through methods well known to those of skill in the art. After baseline measurements of OCR, cells were challenged with compounds of the present disclosure at different concentrations (10 to 50 μM) or vehicle (DMSO, 0.1%) and a post-compound baseline was recorded. OCR was measured after sequentially adding to each well 1.5 μg/ml oligomycin (inhibitor of ATP synthase Sigma-Aldrich, 753531), then maximal OCR was determined with carbonyl cyanide 4-(trifluoromethoxy) phenylhydrazone (FCCP, Sigma-Aldrich, C2920), (uncoupler of oxidative phosphorylation) and 1.0 μM of rotenone (Sigma-Aldrich, R8875) plus antimycin A (Sigma-Aldrich, A8674) (inhibitors of mitochondrial complex I and III) for determination of rotenone-antimycin insensitive respiration together with Hoechst for nuclear staining in situ when normalized to cell counts. After the analysis and nuclear staining, the XFp microplate was transferred to the Cytation 5, and the nuclear images were captured, the individual nuclei were identified and counted by BioTek Gen5 software. […]

[2] = test system: MMA Patient fibroblasts (GM01673, Coriell Institute for Medical Research); test: Mitochondrial fusion and networking (high-content imaging); design: key: Mitochondrial elongation and networking was described as slight, mild or good; Mitochondrial elongation and networking was described as slight, mild or good; Mitochondrial elongation and networking was described as slight, mild or good; details: 10 μM compound, 2 hours, compared to vehicle control
Experimental: Cells were seeded in 96-well plates (density 3000 cells/well) in culture minimum MEM (GIBCO, 10370-021) supplemented with 2 mM L-Glutamine (Thermo Fisher Scientific), 15% FBS (Thermo Fisher Scientific 26400044) and 1% penicillin/streptomycin. Cells were incubated for 48 hours (37° C, 5% CO2), then treated with 10 μM compounds from the present disclosure, 1% DMSO (vehicle) or 5 μM FCCP (control) for 2 hours in fasted conditional medium: Agilent XF DMEM (Agilent 103575-100), pH 7.4 supplemented with 10% FBS (Thermo Fisher Scientific 26400044), 0.03% penicillin/streptomycin 1 mM glucose, 2 mM L-glutamine and 1 mM pyruvate.
After treatment, media was removed, and cells were stained with 100 μl of 1×mixture dye solution of 1 μg/mL JC-1 (Invitrogen Cat #T3168) and 50 ng/ml MitoTracker deep red (Invitrogen Cat #M22426) at 37° C. for 30 minutes. Next, staining was removed, the cells were washed once with 150 μl PBS, and 150 μl of fasted conditional medium (described above) is added to each well. Analysis was carried out on live cells using a Thermo Scientific CellInsight CX7 LZR High-Content Screening Platform. Mitochondrial elongation and networking was described as slight, mild or good.

HepG2 cells = test: Glucose uptake (Glucose Uptake-Glo assay); details: 10 μM compound; insulin control 100 nM
Experimental: The effect of compounds from the present disclosure on glucose uptake was determined in HepG2 cells (ATCC, HB-8065) using the glucose uptake Glo Assay Kit (Promega, J1343 according to manufacturer instructions. HepG2 cells were cultured in complete DMEM-glucose media (Gibco) supplemented with 10% FBS (37° C. incubator with 5% CO2) and seeded in 96-well plates at 30,000 cells/well. After removing the complete media, 100 μL/well of serum-free, high-glucose DMEM media were added to the wells and incubated overnight (37° C. incubator with 5% CO2). Media was then replaced with 100 μL/well DPBS containing 0.6% BSA and starved for 1 hour. Next, DPBS was removed and 45 μl/well of insulin (100 nM) or compounds (10 μM-50 μM) were added to the wells and incubated for 10 minutes (37° C. incubator with 5% CO2). Insulin and compounds were prepared in DPBS with 0.6% BSA with a final DMSO concentration of 0.1%. Next, 5 μL of 2DG (10 mM) in DPBS were added per well and allowed to incubate for 20 minutes followed by addition of 25 μL stop buffer. 37.5 μL of the mixture were then transferred to a new plate and 12.5 μL of Neutralization buffer added to the wells. After, 50 μL of 2DG6P detection Reagent were added and incubated for 0.5-1 hour at room temperature. Luminescence was measured with 0.3-1 second integration on a luminometer. […]

With `CC(C)(CO)[C@H]1OC(=O)CCC(=O)SCCNC(=O)CCNC1=O` [Compound 61, (R)-2-(1-hydroxy-2-methylpropan-2-yl)-1-oxa-11-thia-4,8-diazacyclopentadecane-3,7,12,15-tetraone] the “increase of Spare Capacity AUC” value [1] was greater than 20%, the “mitochondrial elongation and networking” value [2] was “slight” and the “stimulation of Glucose Uptake, % of insulin control” value (HepG2 cells) was “at least 15%”.
